# According to patent US20250388565A1, “ESTROGEN RECEPTOR ALPHA DEGRADERS AND METHODS OF USE THEREOF” (Relay Therapeutics, Inc., priority 2022, published 2025):
# Target: T1, ERα protein (HiBiT-tagged) in ESR1_HiBiT KI MCF7 cells (Homo sapiens, UniProt P03372)
# T1 sequence (P03372 1-595): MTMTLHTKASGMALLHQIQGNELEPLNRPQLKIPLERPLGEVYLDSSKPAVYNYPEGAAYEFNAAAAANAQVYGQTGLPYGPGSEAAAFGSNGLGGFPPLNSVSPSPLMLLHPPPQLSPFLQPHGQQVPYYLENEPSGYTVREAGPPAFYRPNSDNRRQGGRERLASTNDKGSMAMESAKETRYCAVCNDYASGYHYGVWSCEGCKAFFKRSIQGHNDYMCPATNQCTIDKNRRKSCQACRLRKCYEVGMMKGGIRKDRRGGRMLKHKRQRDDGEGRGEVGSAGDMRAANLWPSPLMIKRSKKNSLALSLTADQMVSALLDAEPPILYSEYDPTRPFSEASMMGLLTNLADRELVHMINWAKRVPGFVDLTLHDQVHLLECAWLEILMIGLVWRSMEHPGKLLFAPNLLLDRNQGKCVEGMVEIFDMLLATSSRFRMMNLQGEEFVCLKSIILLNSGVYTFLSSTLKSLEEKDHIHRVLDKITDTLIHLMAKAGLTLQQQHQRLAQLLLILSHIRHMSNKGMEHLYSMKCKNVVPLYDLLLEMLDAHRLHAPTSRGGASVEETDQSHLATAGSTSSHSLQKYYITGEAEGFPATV
# Assay: Nano Glo HiBiT Lytic Degradation Assay
# Type: cell-based
# Conditions: 6 hours with compound, 14-point dose response 1:3, bell-shape curve fit, half-maximal effect of first Hill model, read-out: MCF7 ESR1 HiBiT - (DC50)
# Method in brief: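 HiBiT-tagged endogenous ERα remaining in MCF7 knock-in cells was quantified by lytic luminescence after a 6 h treatment. DC50 values derive from a bell-shaped curve, taken at the first Hill component's half-maximal effect.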
row,Structure (SMILES),DC50 [nM]
1,"O=C1CC[C@H](N2Cc3cc(N4CCN(CC5CCN(c6ccc([C@H]7c8ccc(O)cc8COC78CCCCC8)cc6)CC5)CC4)ccc3C2=O)C(=O)N1 [Compound I-122, (S)-3-(5-(4-((1-(4-((S)-7′-hydroxyspiro[cyclohexane-1,3′-isochroman]-4′-yl)phenyl)piperidin-4-yl)methyl)piperazin-1-yl)-1-oxoisoindolin-2-yl)piperidine-2,6-dione]",≥ 10000
2,"O=C1CC[C@H](N2Cc3cc(N4CCN(CC5CCN(c6ccc([C@@H]7c8ccc(O)cc8COC78CCCCC8)cc6)CC5)CC4)ccc3C2=O)C(=O)N1 [Compound I-123, (S)-3-(5-(4-((1-(4-((R)-7′-hydroxyspiro[cyclohexane-1,3′-isochroman]-4′-yl)phenyl)piperidin-4-yl)methyl)piperazin-1-yl)-1-oxoisoindolin-2-yl)piperidine-2,6-dione]",0.31
3,"C[C@H]1CCc2cc(O)ccc2[C@H]1c1ccc(N2CCC(CN3CCN(c4ccc5c(c4)CN([C@H]4CCC(=O)NC4=O)C5=O)CC3)CC2)cc1 [Compound I-124, (S)-3-(5-(4-((1-(4-((1R,2S)-6-hydroxy-2-methyl-1,2,3,4-tetrahydronaphthalen-1-yl)phenyl)piperidin-4-yl)methyl)piperazin-1-yl)-1-oxoisoindolin-2-yl)piperidine-2,6-dione]",1
4,"C[C@@H]1CCc2cc(O)ccc2[C@@H]1c1ccc(N2CCC(CN3CCN(c4ccc5c(c4)CN([C@H]4CCC(=O)NC4=O)C5=O)CC3)CC2)cc1 [Compound I-125, (S)-3-(5-(4-((1-(4-((1S,2R)-6-hydroxy-2-methyl-1,2,3,4-tetrahydronaphthalen-1-yl)phenyl)piperidin-4-yl)methyl)piperazin-1-yl)-1-oxoisoindolin-2-yl)piperidine-2,6-dione]",3300
5,"O=C1CC[C@H](N2Cc3cc(N4CCN(CC5CCN(c6ccc([C@@H]7c8ccc(O)cc8CC[C@@H]7c7cccc(O)c7)cc6)CC5)CC4)ccc3C2=O)C(=O)N1 [Compound I-126, (3S)-3-[5-[4-[[1-[4-[(1R,2S)-6-hydroxy-2-(3-hydroxyphenyl)tetralin-1-yl]phenyl]-4-piperidyl]methyl]piperazin-1-yl]-1-oxo-isoindolin-2-yl]piperidine-2,6-dione]",0.07
6,"O=C1CC[C@H](N2Cc3cc(N4CCN(CC5CCN(c6ccc([C@H]7c8ccc(O)cc8CC[C@H]7c7cccc(O)c7)cc6)CC5)CC4)ccc3C2=O)C(=O)N1 [Compound I-127, (3S)-3-[5-[4-[[1-[4-[(1S,2R)-6-hydroxy-2-(3-hydroxyphenyl)tetralin-1-yl]phenyl]-4-piperidyl]methyl]piperazin-1-yl]-1-oxo-isoindolin-2-yl]piperidine-2,6-dione]",≥ 10000
7,"O=C1CC[C@H](N2Cc3cc(N4CCN(CC5CCN(c6ccc([C@H]7c8ccc(O)cc8CC[C@H]7c7ccc(O)cc7)cc6)CC5)CC4)ccc3C2=O)C(=O)N1 [Compound I-130, (35)-3-[5-[4-[[1-[4-[(1S, 2R)-6-hydroxy-2-(4-hydroxyphenyl)tetralin-1-yl]phenyl]-4-piperidyl]methyl]piperazin-1-yl]-1-oxo-isoindolin-2-yl]piperidine-2,6-dione]",≥ 10000
8,"O=C1CC[C@H](N2Cc3cc(N4CCN(CC5CCN(c6ccc([C@@H]7c8ccc(O)cc8CC[C@@H]7c7ccc(O)cc7)cc6)CC5)CC4)ccc3C2=O)C(=O)N1 [Compound I-131, (35)-3-[5-[4-[[1-[4-[(1R, 2S)-6-hydroxy-2-(4-hydroxyphenyl)tetralin-1-yl]phenyl]-4-piperidyl]methyl]piperazin-1-yl]-1-oxo-isoindolin-2-yl]piperidine-2,6-dione]",0.03
9,"O=C1CC[C@H](N2Cc3cc(N4CCN(CC5CCN(c6ccc([C@@H]7c8ccc(O)cc8CC[C@@H]7c7ccncc7)cc6)CC5)CC4)ccc3C2=O)C(=O)N1 [Compound I-132, (S)-3-(5-(4-((1-(4-((1R,2S)-6-hydroxy-2-(pyridin-4-yl)-1,2,3,4-tetrahydronaphthalen-1-yl)phenyl)piperidin-4-yl)methyl)piperazin-1-yl)-1-oxoisoindolin-2-yl)piperidine-2,6-dione]",0.0491
10,"O=C1CC[C@H](N2Cc3cc(N4CCN(CC5CCN(c6ccc([C@H]7c8ccc(O)cc8CC[C@H]7C7CCCCCC7)cc6)CC5)CC4)ccc3C2=O)C(=O)N1 [Compound I-134, (3S)-3-[5-[4-[[1-[4-[(1S,2S)-2-cycloheptyl-6-hydroxy-tetralin-1-yl]phenyl]-4-piperidyl]methyl]piperazin-1-yl]-1-oxo-isoindolin-2-yl]piperidine-2,6-dione]",≥ 10000
11,"O=C1CC[C@H](N2Cc3cc(N4CCN(CC5CCN(c6ccc([C@H]7c8ccc(O)cc8CC[C@H]7C7CCCCC7)c(F)c6)CC5)CC4)ccc3C2=O)C(=O)N1 [Compound I-136, (S)-3-(5-(4-((1-(4-((1R,2S)-2-cyclohexyl-6-hydroxy-1,2,3,4-tetrahydronaphthalen-1-yl)-3-fluorophenyl)piperidin-4-yl)methyl)piperazin-1-yl)-1-oxoisoindolin-2-yl)piperidine-2,6-dione]",≥ 10000
12,"O=C1CC[C@H](N2Cc3cc(N4CCN(CC5CCN(c6ccc([C@@H]7c8ccc(O)cc8CC[C@@H]7C7CCCCC7)c(F)c6)CC5)CC4)ccc3C2=O)C(=O)N1 [Compound I-137, (S)-3-(5-(4-((1-(4-((1S,2R)-2-cyclohexyl-6-hydroxy-1,2,3,4-tetrahydronaphthalen-1-yl)-3-fluorophenyl)piperidin-4-yl)methyl)piperazin-1-yl)-1-oxoisoindolin-2-yl)piperidine-2,6-dione]",≥ 10000
13,"Cc1cc(N2CCC(CN3CCN(c4ccc5c(c4)CN([C@H]4CCC(=O)NC4=O)C5=O)CC3)CC2)ccc1[C@H]1c2ccc(O)cc2CC[C@H]1c1ccccc1 [Compound I-138, (S)-3-(5-(4-((1-(4-((1S,2R)-6-hydroxy-2-phenyl-1,2,3,4-tetrahydronaphthalen-1-yl)-3-methylphenyl)piperidin-4-yl)methyl)piperazin-1-yl)-1-oxoisoindolin-2-yl)piperidine-2,6-dione]",≥ 10000
14,"Cc1cc(N2CCC(CN3CCN(c4ccc5c(c4)CN([C@H]4CCC(=O)NC4=O)C5=O)CC3)CC2)ccc1[C@@H]1c2ccc(O)cc2CC[C@@H]1c1ccccc1 [Compound I-139, (S)-3-(5-(4-((1-(4-((1R,2S)-6-hydroxy-2-phenyl-1,2,3,4-tetrahydronaphthalen-1-yl)-3-methylphenyl)piperidin-4-yl)methyl)piperazin-1-yl)-1-oxoisoindolin-2-yl)piperidine-2,6-dione]",0.76
15,"Cc1cc(N2CCC(CN3CCN(c4ccc5c(c4)CN([C@H]4CCC(=O)NC4=O)C5=O)CC3)CC2)ccc1[C@H]1c2ccc(O)cc2CC[C@H]1C1CCCCC1 [Compound I-140, (S)-3-(5-(4-((1-(4-((1S,2S)-2-cyclohexyl-6-hydroxy-1,2,3,4-tetrahydronaphthalen-1-yl)-3-methylphenyl)piperidin-4-yl)methyl)piperazin-1-yl)-1-oxoisoindolin-2-yl)piperidine-2,6-dione]",≥ 10000
16,"Cc1cc(N2CCC(CN3CCN(c4ccc5c(c4)CN([C@H]4CCC(=O)NC4=O)C5=O)CC3)CC2)ccc1[C@@H]1c2ccc(O)cc2CC[C@@H]1C1CCCCC1 [Compound I-141, (S)-3-(5-(4-((1-(4-((1R,2R)-2-cyclohexyl-6-hydroxy-1,2,3,4-tetrahydronaphthalen-1-yl)-3-methylphenyl)piperidin-4-yl)methyl)piperazin-1-yl)-1-oxoisoindolin-2-yl)piperidine-2,6-dione]",2
17,O=C1CC[C@H](N2Cc3cc(N4CCN(CC5CCN(c6ccc([C@H]7c8ccc(O)cc8CCC78CCCCC8)cc6)CC5)CC4)ccc3C2=O)C(=O)N1 [Compound I-142],≥ 10000
18,"COc1cc(N2CCC(CN3CCN(c4ccc5c(c4)CN([C@H]4CCC(=O)NC4=O)C5=O)CC3)CC2)ccc1[C@H]1c2ccc(O)cc2CC[C@H]1c1ccccc1 [Compound I-143, (S)-3-(5-(4-((1-(4-((1R,2R)-6-hydroxy-2-phenyl-1,2,3,4-tetrahydronaphthalen-1-yl)-3-methoxyphenyl)piperidin-4-yl)methyl)piperazin-1-yl)-1-oxoisoindolin-2-yl)piperidine-2,6-dione]",≥ 10000
19,"COc1cc(N2CCC(CN3CCN(c4ccc5c(c4)CN([C@H]4CCC(=O)NC4=O)C5=O)CC3)CC2)ccc1[C@@H]1c2ccc(O)cc2CC[C@@H]1c1ccccc1 [Compound I-144, (S)-3-(5-(4-((1-(4-((1S,2S)-6-hydroxy-2-phenyl-1,2,3,4-tetrahydronaphthalen-1-yl)-3-methoxyphenyl)piperidin-4-yl)methyl)piperazin-1-yl)-1-oxoisoindolin-2-yl)piperidine-2,6-dione]",0.37
20,O=C1CC[C@H](N2Cc3cc(N4CCN(CC5CCN(c6ccc([C@H]7c8ccc(O)cc8CC[C@H]7C7CCC8(CC7)CC8)cc6)CC5)CC4)ccc3C2=O)C(=O)N1 [Compound I-145],≥ 10000
21,O=C1CC[C@H](N2Cc3cc(N4CCN(CC5CCN(c6ccc([C@@H]7c8ccc(O)cc8CC[C@@H]7C7CCC8(CC7)CC8)cc6)CC5)CC4)ccc3C2=O)C(=O)N1 [Compound I-146],3
